Laboratory results reported in patent US12605354B2, “Azelaic acid esters in the treatment or prevention of dyslipidemia and associated conditions” (NEW FRONTIER LABS, LLC, priority 2020, dated 2026).
Marks after values point to notes of the source that are not given here.

Key:
[1] = system: overweight to obese males; assay: 21-day oral DEA study: blood lipid levels and lipid ratios; type: in vivo, human; settings: for LDL/triglycerides / LDL/HDL / Triglycerides/HDL / Non-cholesterol HDL/HDL / Cholesterol, total/HDL / HDL cholesterol / LDL cholesterol / Non-cholesterol HDL / Triglycerides / Cholesterol, total: D21 post-treatment, 21 daily oral doses of 1 mg/kg, mean; for decrease of LDL/HDL: p=0.02; for Cholesterol/HDL, decrease / LDL/HDL, decrease: significant effect
Text: Seventeen subjects were recruited by sampling a large population at risk for T2D (according to convenience sample; a statistical method of drawing representative data) to measure the changes in glucose, lipid and insulin measurements after an OGTT after the subjects had been treated for 21 days.
The subjects were overweight to obese males with body mass indices (BMIs) ranging from 27.2 to 43.6 kg/m^2, glycated hemoglobin A1c (HbA1c) of 5.0-6.2% and insulin levels of 8.8-52 μU/mL. The study was conducted by Clinical Trials of Texas, Inc. in San Antonio, TX. The cohort represented a population at risk for the development of T2D. The study was restricted to male participants to control for the variability of insulin sensitivity associated with the menstrual cycle. The subjects received 21 daily oral doses (“q1d”) of 1 mg/kg DEA. An OGTT, in which 75 grams of glucose in a total volume of 300 mL was administered orally to subjects, was performed on Day 0 and again on Day 21 and glucose measurements performed at −30, −5 and 0 min, insulin measurements at −30 and 0 min, and both glucose measurements and insulin measurements at 30, 60, 90, 120 and 180 minutes, where “0 min” is the time at which the glucose solution was administered. The 180-minute time point was selected to gain an early insight into the possible signal of drug action. Blood lipid levels (triglycerides, cholesterol, HDL, non-cholesterol HDL and LDL) were measured before the onset of treatment on Day 0 and again on Day 21. The error of the assays was <5% [36].
The results of the various marker measurements at Day 0 and Day 21 were compared using both the paired Students T-test and the Wilcoxon signed rank test. The results of both calculations are provided; the p-value from the paired Student T-test first, followed by the p-value from the Wilcoxon signed rank test. Generalized Estimating Equations and bootstrapping were used to verify the results generated with other methods. Fasting glucose was calculated as the average of the −30, −5, and 0-minute measurements and fasting insulin was calculated as the average of the −30- and 0-minute measurements. Spearman's correlation coefficient was calculated for the relationship between A1c and pre-treatment fasting plasma glucose versus post-treatment fasting plasma glucose. Area under the curve (AUC) was calculated over the 180-minute time span of the OGTT. All analyses were performed using the open language engine R 3.4.4. Statistical significance was at the α=0.05 level.

[2] = system: subject, with diet induced insulin resistance and diabetes; assay: Example 2: plasma glucose in OGTT after buccal or gastric delivery of DEA; type: in vivo, human; settings: for plasma glucose levels during OGTT: 0, 1, 2, 4 hours, FIG. 16
Text: Described in this example is an evaluation of the effects of alkyl azelates, such as DEA, on certain markers of insulin resistance and dyslipidemia, namely, blood plasma glucose, insulin levels and/or lipid levels, when administered either for buccal delivery or for gastric delivery in a subject, with diet induced insulin resistance and diabetes with a BMI of approximately 27.
Diethyl azelate was synthesized from azelaic acid and ethyl alcohol sing the standard acid-catalyzed esterification followed by fractional distillation to produce DEA to 99% purity as determined by chromatography-mass spectrometry (GC-MS). The 99% distilled DEA distillation product was administered in unformulated, unencapsulated, etc. form (i.e., “as is”) for buccal delivery as indicated below.
For gastric delivery, the 99% DEA distillation product was placed in a hard gelatin capsule, size 00 (PureCaps USA, Philmont, NY) and administered for gastric delivery by swallowing with a drink of water.
Fasting blood glucose levels were measured using UniStrip blood glucose test strips (UniStrip Technologies LLC, Charlotte, NC) and OneTouchUltra 2 blood glucose meter (LifeScan OneTouch, Tampa. FL).

## CCOC(=O)CCCCCCCC(=O)OCC [DEA, diethyl azelate]
[1]; 21-day study, group not stated
  HDL, increase: 8.7% increase
[1]; All (n = 17), D0 0.998
  LDL/triglycerides: 0.893
[1]; All (n = 17), D0 3.442, P < 0.05
  LDL/HDL: 3.201*
[1]; All (n = 17), D0 3.761
  Triglycerides/HDL: 3.907
[1]; All (n = 17), D0 3.799, P < 0.05
  Non-cholesterol HDL/HDL: 3.549*
[1]; All (n = 17), D0 4.806, P < 0.05
  Cholesterol, total/HDL: 4.553*
[1]; All (n = 17), D0 32.765
  HDL cholesterol: 34.412 mg/dL
[1]; All (n = 17), D0 93.765
  LDL cholesterol: 89.765 mg/dL
[1]; All (n = 17), D0 117.412
  Non-cholesterol HDL: 114.471 mg/dL
[1]; All (n = 17), D0 118.588
  Triglycerides: 124 mg/dL
[1]; All (n = 17), D0 150.118
  Cholesterol, total: 148.882 mg/dL
[1]; FPG <100 mg/dL (n = 8), D0 0.861
  LDL/triglycerides: 0.887
[1]; FPG <100 mg/dL (n = 8), D0 3.082
  LDL/HDL: 2.892
[1]; FPG <100 mg/dL (n = 8), D0 3.309
  Non-cholesterol HDL/HDL: 3.098
[1]; FPG <100 mg/dL (n = 8), D0 3.693
  Triglycerides/HDL: 3.521
[1]; FPG <100 mg/dL (n = 8), D0 4.311
  Cholesterol, total/HDL: 4.089
[1]; FPG <100 mg/dL (n = 8), D0 31.25
  HDL cholesterol: 31.5 mg/dL
[1]; FPG <100 mg/dL (n = 8), D0 101
  LDL cholesterol: 90.75 mg/dL
[1]; FPG <100 mg/dL (n = 8), D0 111.778
  Non-cholesterol HDL: 114.333 mg/dL
[1]; FPG <100 mg/dL (n = 8), D0 122.889
  Triglycerides: 127.667 mg/dL
[1]; FPG <100 mg/dL (n = 8), D0 154.875
  Cholesterol, total: 146.125 mg/dL
[1]; FPG >100 mg/dL (n = 9), D0 1.152
  LDL/triglycerides: 0.9
[1]; FPG >100 mg/dL (n = 9), D0 3.837
  Triglycerides/HDL: 4.342
[1]; FPG >100 mg/dL (n = 9), D0 3.847
  LDL/HDL: 3.549
[1]; FPG >100 mg/dL (n = 9), D0 4.349
  Non-cholesterol HDL/HDL: 4.057
[1]; FPG >100 mg/dL (n = 9), D0 5.362
  Cholesterol, total/HDL: 5.075
[1]; FPG >100 mg/dL (n = 9), D0 34.111
  HDL cholesterol: 37 mg/dL
[1]; FPG >100 mg/dL (n = 9), D0 105
  LDL cholesterol: 103.444 mg/dL
[1]; FPG >100 mg/dL (n = 9), D0 113.75
  Triglycerides: 119.875 mg/dL
[1]; FPG >100 mg/dL (n = 9), D0 123.75
  Non-cholesterol HDL: 114.625 mg/dL
[1]; FPG >100 mg/dL (n = 9), D0 145.889
  Cholesterol, total: 151.333 mg/dL
[1]; High A1c (n = 9), D0 0.954
  LDL/triglycerides: 0.972
[1]; High A1c (n = 9), D0 3.173, P < 0.01
  LDL/HDL: 2.862**
[1]; High A1c (n = 9), D0 3.446
  Non-cholesterol HDL/HDL: 3.108
[1]; High A1c (n = 9), D0 3.481
  Triglycerides/HDL: 3.096
[1]; High A1c (n = 9), D0 4.456, P < 0.05
  Cholesterol, total/HDL: 4.1*
[1]; High A1c (n = 9), D0 37.889
  HDL cholesterol: 41.222 mg/dL
[1]; High A1c (n = 9), D0 105
  LDL cholesterol: 103.444 mg/dL
[1]; High A1c (n = 9), D0 129
  Triglycerides: 125.222 mg/dL
[1]; High A1c (n = 9), D0 130.667
  Non-cholesterol HDL: 128.444 mg/dL
[1]; High A1c (n = 9), D0 168.444
  Cholesterol, total: 169.667 mg/dL
[1]; Low A1c (n = 8), D0 1.048
  LDL/triglycerides: 0.804
[1]; Low A1c (n = 8), D0 3.744
  LDL/HDL: 3.582
[1]; Low A1c (n = 8), D0 4.076
  Triglycerides/HDL: 4.82
[1]; Low A1c (n = 8), D0 4.196
  Non-cholesterol HDL/HDL: 4.046
[1]; Low A1c (n = 8), D0 5.2
  Cholesterol, total/HDL: 5.062
[1]; Low A1c (n = 8), D0 27
  HDL cholesterol: 26.75 mg/dL
[1]; Low A1c (n = 8), D0 81.125
  LDL cholesterol: 74.375 mg/dL
[1]; Low A1c (n = 8), D0 102.5
  Non-cholesterol HDL: 98.75 mg/dL
[1]; Low A1c (n = 8), D0 106.875
  Triglycerides: 122.625 mg/dL
[1]; Low A1c (n = 8), D0 129.5
  Cholesterol, total: 125.5 mg/dL
[1]; all
  LDL, decrease: 4.3%
  Cholesterol/HDL, decrease: 5.4%
  LDL/HDL, decrease: 6.5%
[1]; all 17 subjects, p=0.011
  decrease of LDL/HDL: 6.46%
[1]; all subjects
  HDL and non-cholesterol HDL: non-significantly affected by the treatment
[1]; entire cohort
  effect on total cholesterol, LDL, HDL, non-cholesterol HDL, and triglycerides considered singly: did not exert statistically significant effects on any endpoint considered singly
[1]; entire cohort, p=0.025, p=0.041
  decrease of the ratio of total cholesterol/HDL: 5.36%
[1]; entire cohort, p=0.025, p=0.057
  decrease of non-cholesterol HDL/HDL ratio: 6.6%
[1]; high A1c
  LDL, decrease: 2%
  Cholesterol/HDL, decrease: 8%
  LDL/HDL, decrease: 9.8%
[1]; high A1c group
  decrease of median total cholesterol: 1 mg/dL
  decrease of the ratio of triglycerides/HDL: 11%
[1]; high A1c group, from 3.4
  ratio of triglycerides/HDL post-treatment: 3.0
[1]; high A1c group, less so in the low A1c group, normal <100 mg/dL
  LDL trend: decreasing trend toward normal values
[1]; high A1c group, p=0.017, p=0.068
  decrease of the ratio of total cholesterol/HDL: 7.99%
[1]; high A1c group, p=0.025, p=0.074
  decrease of non-cholesterol HDL/HDL ratio: 9.8%
[1]; high A1c subjects, 21-day study (3 weeks), p=0.008
  decrease of LDL/HDL: 9.8%
[1]; including two high A1c subjects with abnormal triglycerides >150 before treatment
  elevated triglycerides post-treatment: decreased post-treatment to normal levels in 8 subjects
[1]; low A1c
  increase of the ratio of triglycerides/HDL: 15%
[1]; low A1c group
  increase of median total cholesterol: 9 mg/dL
[1]; low A1c, from 3.9
  ratio of triglycerides/HDL post-treatment: 4.6
[1]; two subjects in the high A1c group
  abnormal total cholesterol (>200 mg/dL) post-treatment: decreased or returned to normal levels
[2]; at 0 hour and 4 hours after 75 grams of glucose in OGTT, FIG. 17, T test
  improvement in plasma glucose levels, buccal relative to gastric delivery: significantly significant greater improvement
[2]; buccal delivery vs 0 mg/kg, more pronounced at 0.5 mg/kg
  plasma glucose levels during OGTT: lowered (i.e., improved) plasma glucose levels at most tested DEA dosages and post-glucose ingestion time points
[2]; buccal, 0.5-4 mg/kg vs 0, 0, 1, 2, 4 hours after 75 grams of glucose, FIG. 10, most pronounced at 0.5 and 1 mg/kg
  plasma glucose concentrations during OGTT: lowered (improved) plasma glucose levels
[2]; buccal, 0.5-4 mg/kg vs 0, FIG. 11, most pronounced at 0.5 and 1 mg/kg
  plasma glucose concentrations during fasting OGTT: lowered (improved) plasma glucose levels
[2]; buccal, 0.5-4 mg/kg vs 0, FIG. 12, most pronounced at 0.5 mg/kg
  plasma glucose concentrations during OGTT at 1 hour: lowered (improved) plasma glucose levels in the setting of OGTT at all DEA dosage amounts
[2]; buccal, 0.5-4 mg/kg vs 0, FIG. 13, most pronounced at 0.5 and 1 mg/kg
  plasma glucose concentrations during OGTT at 2 hours: lowered (improved) plasma glucose levels in the setting of OGTT at all DEA dosage amounts
[2]; buccal, 0.5-4 mg/kg vs 0, FIG. 14
  plasma glucose concentrations during OGTT at 4 hours: lowered (improved) plasma glucose levels in the setting of OGTT at the 0.5 mg/kg, 1 mg/kg, and 4 mg/kg DEA dosage amounts
[2]; gastric delivery vs 0 mg/kg, more pronounced at 0.25 mg/kg
  plasma glucose levels during OGTT: lowered (i.e., improved) plasma glucose levels at most tested DEA dosages and post-glucose ingestion time points
